The source made the active and inactive calls.

The values below come from ChEMBL document CHEMBL1201862, “PubChem BioAssay data set” (2004).

In experiment [1] the target is Platelet-derived growth factor receptor alpha (Homo sapiens, UniProt P16234). As to the kind of experiment: Navigating the Kinome. Panel member name: PDGFRA. The experiment is classed as functional.
Experiment [2] deals with Proto-oncogene tyrosine-protein kinase Src (Homo sapiens, UniProt P12931). Format: functional.
Experiment [3] has as its target Tyrosine-protein kinase Lck (Homo sapiens, UniProt P06239). The experiment is classed as functional.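 Further: lck was assayed as one member of a kinase panel.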
In experiment [4] the target is Activin receptor type-1 (Homo sapiens, UniProt Q04771). As to the kind of experiment: Navigating the Kinome. Panel member name: ACVR1. Format: functional.
Chain of Activin receptor type-1 (Q04771 whole entry): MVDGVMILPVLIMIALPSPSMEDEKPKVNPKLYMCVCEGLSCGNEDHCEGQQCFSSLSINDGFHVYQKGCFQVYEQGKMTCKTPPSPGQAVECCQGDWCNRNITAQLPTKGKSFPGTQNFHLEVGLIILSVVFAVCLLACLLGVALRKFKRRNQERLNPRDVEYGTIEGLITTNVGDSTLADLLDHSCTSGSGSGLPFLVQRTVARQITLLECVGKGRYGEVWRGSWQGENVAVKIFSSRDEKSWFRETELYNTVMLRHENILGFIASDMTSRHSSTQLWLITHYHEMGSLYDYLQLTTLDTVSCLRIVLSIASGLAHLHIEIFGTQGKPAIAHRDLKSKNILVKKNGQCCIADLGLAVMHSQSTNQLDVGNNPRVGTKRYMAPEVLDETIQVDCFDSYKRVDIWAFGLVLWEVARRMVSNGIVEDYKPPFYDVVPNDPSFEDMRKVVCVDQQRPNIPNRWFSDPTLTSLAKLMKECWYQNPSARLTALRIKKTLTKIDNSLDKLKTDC
Experiment [5] concerns the target BDNF/NT-3 growth factors receptor (Homo sapiens, UniProt Q16620). The experiment is classed as functional.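 Further: NTRK2 measured as one member of a broad kinome-wide kinase profiling panel.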
In experiment [6] the target is cAMP-dependent protein kinase catalytic subunit alpha (Homo sapiens, UniProt P17612). The experiment is classed as functional.
The target in experiment [7] is Platelet-derived growth factor receptor beta (Homo sapiens, UniProt P09619). The experiment is classed as functional.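 Further: value comes from a kinome panel, with PDGFRB tested as one panel member.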
Chain of Platelet-derived growth factor receptor beta (P09619 whole entry): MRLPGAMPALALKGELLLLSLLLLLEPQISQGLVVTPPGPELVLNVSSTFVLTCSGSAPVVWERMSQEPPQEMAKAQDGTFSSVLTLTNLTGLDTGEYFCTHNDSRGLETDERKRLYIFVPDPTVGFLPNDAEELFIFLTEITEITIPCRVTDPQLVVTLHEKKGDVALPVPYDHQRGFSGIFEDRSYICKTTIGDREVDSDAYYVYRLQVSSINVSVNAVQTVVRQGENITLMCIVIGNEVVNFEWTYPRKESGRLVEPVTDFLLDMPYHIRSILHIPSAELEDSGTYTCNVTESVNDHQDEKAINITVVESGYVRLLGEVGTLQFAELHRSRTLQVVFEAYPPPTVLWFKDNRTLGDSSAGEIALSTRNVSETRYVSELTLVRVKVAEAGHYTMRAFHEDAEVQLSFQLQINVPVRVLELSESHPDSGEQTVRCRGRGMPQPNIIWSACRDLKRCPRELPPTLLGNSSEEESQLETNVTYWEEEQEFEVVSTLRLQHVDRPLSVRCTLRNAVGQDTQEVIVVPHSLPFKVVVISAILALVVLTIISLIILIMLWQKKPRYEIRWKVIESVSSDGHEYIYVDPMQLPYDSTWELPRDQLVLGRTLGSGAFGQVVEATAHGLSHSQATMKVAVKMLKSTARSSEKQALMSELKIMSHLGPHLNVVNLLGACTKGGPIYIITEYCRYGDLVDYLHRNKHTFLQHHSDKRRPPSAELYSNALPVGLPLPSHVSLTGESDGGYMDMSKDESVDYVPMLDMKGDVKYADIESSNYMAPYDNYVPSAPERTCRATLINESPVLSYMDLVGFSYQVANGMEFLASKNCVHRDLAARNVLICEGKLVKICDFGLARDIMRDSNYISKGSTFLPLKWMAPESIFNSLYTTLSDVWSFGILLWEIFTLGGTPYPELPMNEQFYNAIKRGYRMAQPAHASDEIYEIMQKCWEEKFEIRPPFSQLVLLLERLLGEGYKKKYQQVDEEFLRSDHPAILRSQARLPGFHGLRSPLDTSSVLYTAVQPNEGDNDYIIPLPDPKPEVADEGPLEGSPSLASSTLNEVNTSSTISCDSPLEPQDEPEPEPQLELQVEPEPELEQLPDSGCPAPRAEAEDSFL
For experiment [8], the target named is Leukocyte tyrosine kinase receptor (Homo sapiens, UniProt P29376). Nature of the experiment: Navigating the Kinome. Panel member name: LTK. The experiment is classed as functional.
Experiment [9] addresses Melanocortin receptor 4 (Homo sapiens, UniProt P32245). Nature of the experiment: MC4R antagonist potency on cAMP, dose response, cell-based, TR-FRET, biased antagonists (AID 602298).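 Further: antagonist potency against agonist-stimulated cAMP production.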 Format: functional.
Experiment [10] in a line: inhibitors of intracellular T. cruzi replication, confirmation, NIH3T3 host cells, beta-gal luminescence (AID 2044).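 Further: intracellular parasites grown in NIH/3T3 mouse fibroblasts as host cells; luminescent beta-galactosidase reporter signal from transgenic T. cruzi replicating inside host cells; inhibitors lower the luminescence signal.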 The experiment is classed as functional, cell-based.
A short description of experiment [11]: insulin promoter down-regulators in MIN6 cells, imaging, high-content screening, mouse beta cells (AID 1628). Format: functional.
The nature of experiment [12]: cytotoxicity in HPDE-C7 cells, cell-based, fluorescence, HTS (AID 430). Format: functional. The following applies: Homo sapiens.
For experiment [13], the target named is Beta-galactosidase (Escherichia coli, UniProt Q8VNN2). As to the kind of experiment: beta-galactosidase enzyme inhibitors and activators, dose response, artefact control for CCR6 antagonist project, biochemical, E. coli enzyme, set 3 (AID 504712). Format: functional.
Chain of Beta-galactosidase (Q8VNN2 whole entry): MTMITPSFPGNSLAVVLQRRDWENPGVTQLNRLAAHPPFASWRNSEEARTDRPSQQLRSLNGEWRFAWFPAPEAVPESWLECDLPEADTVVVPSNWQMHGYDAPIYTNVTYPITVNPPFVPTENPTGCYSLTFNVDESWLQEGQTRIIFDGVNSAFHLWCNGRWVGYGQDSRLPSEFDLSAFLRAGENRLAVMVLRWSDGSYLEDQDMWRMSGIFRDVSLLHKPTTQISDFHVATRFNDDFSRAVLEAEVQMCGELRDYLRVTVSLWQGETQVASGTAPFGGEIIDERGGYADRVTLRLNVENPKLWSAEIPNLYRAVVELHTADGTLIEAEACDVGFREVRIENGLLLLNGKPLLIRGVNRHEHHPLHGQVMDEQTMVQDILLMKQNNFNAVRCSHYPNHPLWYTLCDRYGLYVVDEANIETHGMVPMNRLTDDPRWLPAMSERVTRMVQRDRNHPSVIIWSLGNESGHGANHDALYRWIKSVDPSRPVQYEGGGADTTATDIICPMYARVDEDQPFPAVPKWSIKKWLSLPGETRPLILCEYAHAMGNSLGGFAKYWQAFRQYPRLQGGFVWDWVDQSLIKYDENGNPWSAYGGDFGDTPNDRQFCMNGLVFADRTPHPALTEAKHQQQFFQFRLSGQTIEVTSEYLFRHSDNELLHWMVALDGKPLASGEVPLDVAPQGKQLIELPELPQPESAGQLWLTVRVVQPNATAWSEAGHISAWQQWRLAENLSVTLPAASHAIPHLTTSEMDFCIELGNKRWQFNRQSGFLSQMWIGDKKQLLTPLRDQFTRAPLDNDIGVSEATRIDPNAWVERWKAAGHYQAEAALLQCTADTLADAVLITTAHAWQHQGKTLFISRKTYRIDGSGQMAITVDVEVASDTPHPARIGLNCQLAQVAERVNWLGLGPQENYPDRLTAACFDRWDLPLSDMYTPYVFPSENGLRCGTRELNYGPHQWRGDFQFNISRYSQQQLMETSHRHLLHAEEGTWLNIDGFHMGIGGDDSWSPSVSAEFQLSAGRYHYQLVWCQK
The nature of experiment [14]: cytotoxicity toward NIH3T3 fibroblasts, dose response, counter-screen, cell-based, ATP luminescence, mouse fibroblasts (AID 2010).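 Further: cells exposed to compound for about 90 hours before reading.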 The experiment is classed as functional.
Experiment [15] in a line: control 3'UTR Renilla luciferase suppression, dose response, counter-screen for Shn3 inhibitor project, cell-based, Clone20-Shn3RL, cherry-picked (AID 624133). Format: functional.
A short description of experiment [16]: cytotoxicity in MIN6 insulinoma cells, dose response, cytotoxicity control, cell-based, mouse insulinoma (AID 2122).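 Further: confirmatory high-throughput counterscreen run to flag cytotoxic compounds; mouse MIN-6 beta cells carrying an insulin promoter eGFP reporter.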 Format: functional.
The nature of experiment [17]: Shn3 3'UTR reporter inhibitors, dose response, cell-based, Clone20 osteoblasts, firefly luciferase, cherry-picked (AID 624132).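 Further: firefly luciferase luminescence from reporter carrying the Shn3 3'UTR in osteoblasts.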 The experiment is classed as functional.
Experiment [18] concerns the target C-C chemokine receptor type 6 (Homo sapiens, UniProt P51684). As to the kind of experiment: CCR6 receptor antagonists, dose response, cell-based, luminescent beta-arrestin readout (AID 504728). Format: functional.
Experiment [19] addresses T1, Replicative DNA helicase DnaB (Mycobacterium tuberculosis, UniProt P9WMR3).
T1 sequence (P9WMR3 whole entry): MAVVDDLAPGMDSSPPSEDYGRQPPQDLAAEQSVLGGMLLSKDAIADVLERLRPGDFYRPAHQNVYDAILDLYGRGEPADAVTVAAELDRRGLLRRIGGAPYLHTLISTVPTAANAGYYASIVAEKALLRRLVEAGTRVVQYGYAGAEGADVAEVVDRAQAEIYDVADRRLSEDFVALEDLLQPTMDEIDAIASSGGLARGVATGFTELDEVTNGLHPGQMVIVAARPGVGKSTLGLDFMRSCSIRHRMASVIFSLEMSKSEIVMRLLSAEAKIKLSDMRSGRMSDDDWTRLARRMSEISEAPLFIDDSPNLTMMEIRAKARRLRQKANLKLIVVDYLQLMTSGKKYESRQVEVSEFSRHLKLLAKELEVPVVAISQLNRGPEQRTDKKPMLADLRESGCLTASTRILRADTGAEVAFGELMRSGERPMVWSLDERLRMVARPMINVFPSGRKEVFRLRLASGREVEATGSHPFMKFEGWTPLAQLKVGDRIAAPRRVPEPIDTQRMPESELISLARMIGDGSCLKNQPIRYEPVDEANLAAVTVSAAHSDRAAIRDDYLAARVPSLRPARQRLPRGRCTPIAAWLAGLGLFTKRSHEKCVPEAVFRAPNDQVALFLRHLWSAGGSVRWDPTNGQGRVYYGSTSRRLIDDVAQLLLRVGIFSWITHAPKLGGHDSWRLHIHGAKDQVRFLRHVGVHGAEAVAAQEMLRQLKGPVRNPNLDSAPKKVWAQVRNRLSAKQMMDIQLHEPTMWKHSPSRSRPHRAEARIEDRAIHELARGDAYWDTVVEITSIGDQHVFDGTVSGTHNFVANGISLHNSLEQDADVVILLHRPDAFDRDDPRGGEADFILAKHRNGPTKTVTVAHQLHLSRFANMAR
Nature of the experiment: DnaB intein splicing inhibitors, dose response, biochemical, cell-free fluorescence (AID 449749). The experiment is classed as functional.

Experiment [20] concerns the target Beta-2 adrenergic receptor (Homo sapiens, UniProt P07550). Nature of the experiment: beta2AR agonists driving receptor internalization, dose response, cell-based, FAP fluorogen, flow cytometry, cherry pick 1 (AID 588763). The experiment is classed as functional.
Experiment [21] has as its target Heat shock protein HSP 90-alpha (Homo sapiens, UniProt P07900). The experiment is classed as functional, organism-based.
In experiment [22] the target is T2, Protein RecA (Mycobacterium tuberculosis, UniProt P9WHJ3).
T2 sequence (P9WHJ3 whole entry): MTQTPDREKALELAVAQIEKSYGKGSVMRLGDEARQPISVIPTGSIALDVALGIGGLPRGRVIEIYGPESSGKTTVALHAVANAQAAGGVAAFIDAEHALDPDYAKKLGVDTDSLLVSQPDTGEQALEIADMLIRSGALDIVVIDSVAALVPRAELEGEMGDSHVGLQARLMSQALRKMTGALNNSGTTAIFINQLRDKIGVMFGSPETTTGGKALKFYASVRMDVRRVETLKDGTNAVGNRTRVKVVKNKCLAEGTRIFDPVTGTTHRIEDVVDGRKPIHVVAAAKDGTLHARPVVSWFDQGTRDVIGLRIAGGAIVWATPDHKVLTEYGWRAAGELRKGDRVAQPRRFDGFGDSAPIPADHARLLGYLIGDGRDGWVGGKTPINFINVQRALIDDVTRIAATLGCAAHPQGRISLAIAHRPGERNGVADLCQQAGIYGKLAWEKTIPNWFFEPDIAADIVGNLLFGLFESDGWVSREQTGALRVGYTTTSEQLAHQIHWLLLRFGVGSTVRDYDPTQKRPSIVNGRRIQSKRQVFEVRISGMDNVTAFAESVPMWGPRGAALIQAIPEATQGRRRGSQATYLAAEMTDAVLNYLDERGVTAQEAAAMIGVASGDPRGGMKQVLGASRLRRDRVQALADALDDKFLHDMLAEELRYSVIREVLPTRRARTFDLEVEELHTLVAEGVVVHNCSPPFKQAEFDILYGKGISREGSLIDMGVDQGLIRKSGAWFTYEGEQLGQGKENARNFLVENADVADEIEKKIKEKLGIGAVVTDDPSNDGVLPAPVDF
Nature of the experiment: Fluorescence Cell-Free Homogeneous Dose Retest to Identify Inhibitors of RecA-Intein Splicing Activity. [Related pubchem assays (depositor defined):AID2097, AID2223, AID489010, AID492950]. Format: functional.

Experiment [23] can be described thus: nonselective inhibitors of cellular cAMP signaling, dose response, counter-screen for MC4R biased antagonist project, cell-based, TR-FRET cAMP detection (AID 602305).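 Further: U2OS cells stimulated with forskolin near its EC80 as the cAMP inducer; potency is for inhibition of forskolin-stimulated cAMP signaling.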 Format: functional.
A short description of experiment [24]: HepG2 cell cytotoxicity, dose response, cytotoxicity control for Shn3 inhibitor project, CellTiter-Glo, cherry-picked (AID 624134). The experiment is classed as functional, cell-based.
Experiment [25] is described as follows: cytotoxicity in KRAS-transformed pancreatic duct cells, primary screen, cell-based, fluorescence, HTS (AID 431).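 Further: cell line used: HPDE-C7K.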 The following applies: Homo sapiens. The experiment is classed as functional.

Chain of Platelet-derived growth factor receptor alpha (P16234 whole entry): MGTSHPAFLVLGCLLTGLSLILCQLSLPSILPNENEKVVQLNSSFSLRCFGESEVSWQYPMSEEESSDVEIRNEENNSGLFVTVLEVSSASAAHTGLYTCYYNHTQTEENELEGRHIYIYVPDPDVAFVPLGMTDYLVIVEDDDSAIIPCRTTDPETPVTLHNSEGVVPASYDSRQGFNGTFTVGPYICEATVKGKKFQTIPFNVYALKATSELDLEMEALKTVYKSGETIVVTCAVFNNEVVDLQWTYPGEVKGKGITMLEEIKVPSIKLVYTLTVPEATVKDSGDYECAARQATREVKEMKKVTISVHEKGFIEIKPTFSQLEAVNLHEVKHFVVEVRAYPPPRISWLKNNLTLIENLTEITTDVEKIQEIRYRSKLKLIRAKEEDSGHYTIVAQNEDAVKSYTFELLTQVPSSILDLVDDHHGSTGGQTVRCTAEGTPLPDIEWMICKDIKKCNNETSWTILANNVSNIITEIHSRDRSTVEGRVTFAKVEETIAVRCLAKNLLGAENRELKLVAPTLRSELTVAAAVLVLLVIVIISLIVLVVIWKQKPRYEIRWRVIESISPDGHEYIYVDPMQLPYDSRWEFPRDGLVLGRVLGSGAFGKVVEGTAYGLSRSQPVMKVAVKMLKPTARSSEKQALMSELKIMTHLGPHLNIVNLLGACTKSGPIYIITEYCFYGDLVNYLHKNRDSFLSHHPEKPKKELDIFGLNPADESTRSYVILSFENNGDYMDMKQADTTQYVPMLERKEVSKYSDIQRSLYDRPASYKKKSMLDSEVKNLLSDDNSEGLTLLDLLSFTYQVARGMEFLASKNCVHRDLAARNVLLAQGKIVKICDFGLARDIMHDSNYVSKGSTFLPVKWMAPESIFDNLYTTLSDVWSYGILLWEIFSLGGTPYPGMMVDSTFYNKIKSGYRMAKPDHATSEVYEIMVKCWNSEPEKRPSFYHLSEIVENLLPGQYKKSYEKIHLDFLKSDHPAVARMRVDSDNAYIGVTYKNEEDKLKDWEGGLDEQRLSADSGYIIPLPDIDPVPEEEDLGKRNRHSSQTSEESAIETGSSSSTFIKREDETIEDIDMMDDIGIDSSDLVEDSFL
Chain of Tyrosine-protein kinase Lck (P06239 whole entry): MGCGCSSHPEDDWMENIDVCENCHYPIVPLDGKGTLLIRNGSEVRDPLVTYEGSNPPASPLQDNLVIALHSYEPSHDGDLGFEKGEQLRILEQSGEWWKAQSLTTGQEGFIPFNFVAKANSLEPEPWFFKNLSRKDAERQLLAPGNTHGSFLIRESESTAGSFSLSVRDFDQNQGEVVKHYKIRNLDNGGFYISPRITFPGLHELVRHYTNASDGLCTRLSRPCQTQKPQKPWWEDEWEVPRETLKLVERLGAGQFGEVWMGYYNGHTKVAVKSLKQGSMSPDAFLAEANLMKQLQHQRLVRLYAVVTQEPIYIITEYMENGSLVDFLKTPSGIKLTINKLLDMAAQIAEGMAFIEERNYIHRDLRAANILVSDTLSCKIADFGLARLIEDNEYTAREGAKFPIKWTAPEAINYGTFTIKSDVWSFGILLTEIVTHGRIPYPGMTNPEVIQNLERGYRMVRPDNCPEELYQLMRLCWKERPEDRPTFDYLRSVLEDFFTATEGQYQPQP
Chain of BDNF/NT-3 growth factors receptor (Q16620 whole entry): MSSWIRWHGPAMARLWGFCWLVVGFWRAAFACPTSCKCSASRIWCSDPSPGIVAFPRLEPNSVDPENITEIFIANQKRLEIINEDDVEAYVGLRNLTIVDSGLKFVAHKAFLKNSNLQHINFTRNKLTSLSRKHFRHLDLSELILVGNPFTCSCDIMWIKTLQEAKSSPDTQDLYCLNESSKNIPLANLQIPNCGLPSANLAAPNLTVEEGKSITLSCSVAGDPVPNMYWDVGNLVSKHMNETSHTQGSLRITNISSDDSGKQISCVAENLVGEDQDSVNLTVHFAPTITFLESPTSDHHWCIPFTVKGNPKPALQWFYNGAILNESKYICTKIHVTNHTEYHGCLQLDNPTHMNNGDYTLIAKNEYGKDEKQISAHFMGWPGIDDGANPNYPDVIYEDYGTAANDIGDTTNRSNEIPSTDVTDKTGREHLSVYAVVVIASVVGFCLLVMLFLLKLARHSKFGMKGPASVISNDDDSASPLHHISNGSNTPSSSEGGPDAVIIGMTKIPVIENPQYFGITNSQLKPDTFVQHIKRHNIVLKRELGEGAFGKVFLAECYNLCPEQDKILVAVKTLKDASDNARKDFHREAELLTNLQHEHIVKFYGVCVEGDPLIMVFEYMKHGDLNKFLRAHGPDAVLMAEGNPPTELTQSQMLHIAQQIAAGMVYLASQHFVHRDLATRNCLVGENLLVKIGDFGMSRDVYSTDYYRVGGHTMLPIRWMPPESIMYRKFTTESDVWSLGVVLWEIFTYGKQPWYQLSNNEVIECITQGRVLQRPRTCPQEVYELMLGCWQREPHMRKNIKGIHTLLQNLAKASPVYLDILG

For the molecule `COc1cc(Nc2ncc3c(n2)-c2ccc(Cl)cc2C(c2c(F)cccc2OC)=NC3)ccc1C(=O)O` [ALISERTIB], the Ki in experiment [1] is > 1 µM (inactive); in [2], 0.316 µM (active); in experiment [3], 0.316 µM (active); in experiment [4], > 3.98 µM (inactive); in experiment [5], 1 µM (active); in [6], 0.631 µM (active). Moreover, the Ki in [7] was > 1 µM (inactive); in experiment [8], 0.398 µM (active).
On to `CC(C)(C)c1cc(C(c2cccnc2)N2CCN(CCO)CC2)cc(C(C)(C)C)c1O` (stereo not given), for which the IC50 is 25.1 µM (inactive) in experiment [9]; 4.68 µM (active) in experiment [11]; > 66.6 µM (inactive) in [13]; 3.96 µM (active) in experiment [16]; 35.9 µM (inactive) in experiment [18]; > 64.6 µM (inactive) in experiment [23]. Moreover, the EC50 in experiment [10] is 0.488 µM (active); in experiment [12], 3.77 µM (active); in experiment [14], 4.59 µM (active); in experiment [20], 7.35 µM (inactive); in experiment [22] it was 17.3 µM (active); in experiment [25], 3.45 µM (active). In addition, the AC50 was 7.04 µM (active) in experiment [15]; 1.7 µM (active) in experiment [17]; 20 µM (active) in experiment [19]; 24 µM (active) in experiment [21]; 25.2 µM (active) in experiment [24].
